# Measured values taken from PubChem BioAssay AID463074 (Broad Institute, 2010).
# Active and inactive are the calls of the source.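 The calls were made as follows: active = AC50 no more than tenfold above the top dose tested, or full inhibition at every dose with a flat fit (cut at about 19 µM in these data); inconclusive = flat curve fit with inhibition between 30% and 70%, or poor fit; inactive = AC50 more than tenfold above the top dose tested.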
# Tested on: HMLE_sh_eGFP viability, CellTiter-Glo luminescence, 72 h
# Experiment: viability loss of HMLE_sh_eGFP cells – cell-based, luminescence, counter-screen for HMLE_sh_ECad selective toxicity project, dose response (AID 463074);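 also: counterscreen control line to flag general toxicity for the HMLE_sh_ECad screen; potency for loss of viability as luminescence drops below DMSO wells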
row,Compound,AC50
1,COc1cc(CNC2CCCC2)cc(Cl)c1OCc1ccccc1Cl,6.95 µM
2,CCOC(=O)c1ccc(NC(=O)c2nc[nH]c2C(=O)NCCNC(=O)c2[nH]cnc2C(=O)Nc2ccc(C(=O)OCC)cc2)cc1,0.624 µM
3,CCN(CC)S(=O)(=O)c1cccc(C(=O)N/N=C/c2cccc(O)c2O)c1,7.97 µM
4,Cc1cc(Br)c(OCc2ccc(C(=O)N/N=C/c3ccc[nH]3)cc2)c(Br)c1,1.32 µM
5,Fc1ccc(C(OCCN2CCN(CCCc3ccccc3)CC2)c2ccc(F)cc2)cc1,3.12 µM
6,C/C(=N/Nc1ccc([N+](=O)[O-])cc1)c1ccc(C)cc1C,7.68 µM
7,Cc1cccc(CNc2ccc(C(CC(N)=O)NC(=O)Cc3cccc4ccccc34)cc2[N+](=O)[O-])c1 (stereo not drawn),13.7 µM
8,O=C/C=C/c1c(-c2ccccc2)cc2oc3ccccc3cc1-2,9.18 µM
9,Cc1cccc2c1NC(=O)/C2=C\C(=O)c1cccs1,6.66 µM
10,c1ccc(-c2nnc3sc(CN4CCc5ccccc54)cn23)cc1,3.51 µM
11,CN(C)c1ccc(/C=N/NC(=O)C(=O)/C=C2\NC3(CCCC3)Cc3ccccc32)cc1,6.5 µM
12,O=C1C(C2=NC(c3ccccn3)C3C(=O)N(c4ccc(Cl)cc4Cl)C(=O)C23)=C(O)c2ccccc21 (stereo not drawn),> 19.5 µM (inactive)
13,CCCCc1ccc(/C(C)=N/Nc2cc(N3CCOCC3)nc(C)n2)cc1,4.99 µM
14,CCOC(=O)c1c(C)nc2c(c1-c1ccc(Cl)cc1)C(=O)CC(C)(C)C2,18.1 µM
15,Cn1cc([N+](=O)[O-])c(C(=O)Nc2ccc(-c3nc4ccccc4o3)cc2)n1,2.33 µM
16,CN1CCN(C2=Cc3ccc(Cl)cc3Sc3ccc(F)cc32)CC1,6.74 µM
17,CCCCCCSc1cccc(-c2nc3cc(C)ccn3c2NC2CCCCC2)c1,9.77 µM
18,Cc1cccc(Cn2cc(/C=C/[N+](=O)[O-])c3ccccc32)c1,3.47 µM
19,Cc1ccc(C)c(NC(=O)c2cc(-c3ccccc3)nn2-c2ccccc2)c1,6.27 µM
20,CCOc1ccc(S(=O)(=O)N2CCN=C2c2ccccc2)cc1,3.1 µM
21,CC12CCC3C(CC=C4CC(O)CCC43C)C1C/C(=C\c1ccccc1F)C2=O (stereo not drawn),4.04 µM
22,c1ccc(-c2c3ccccc3nc3[nH]c4ccccc4c23)cc1,2.95 µM
23,Cc1ccc(C)c(NC(=O)CSc2nc3nc(-c4cccs4)cc(C(F)(F)F)c3c(=O)[nH]2)c1,4.39 µM
24,Cc1nc(NC(=O)c2ccco2)sc1-c1csc(Nc2ccc(Cl)cc2)n1,2.54 µM
25,CCCNC(=O)c1onc(CSc2ccc(Cl)cc2)c1C(=O)NCCC(C)C,2.99 µM
26,CC(=O)c1ccc(N2CCC(c3cc(-c4ccc(Cl)cc4Cl)n[nH]3)CC2)c([N+](=O)[O-])c1,4.17 µM

row,Compound,AC50
1,COc1cc(-c2nc(-c3ccc(NC(=O)c4ccc(Br)o4)cc3)no2)cc(OC)c1OC,3.5 µM
2,O=C(/C=C/c1ccc2c(c1)OCO2)Nc1nc(-c2ccccc2)cs1,0.781 µM
3,O=C(COC(=O)/C=C/C(=O)OCC(=O)Nc1ccccc1F)Nc1ccccc1F,9.61 µM
4,O=c1cc(NS(=O)(=O)c2ccccc2)nc(SCc2ccc(Cl)cc2)[nH]1,5.9 µM
5,FC(F)Oc1ccc(-c2csc(NNC3=NCCCCC3)n2)cc1,3.28 µM
6,Cc1ccccc1NC(=O)C(Cl)=C(Cl)Cl,7.21 µM
7,COC(=O)c1c(NC(=O)c2ccco2)sc2c1CCC2,> 19.5 µM (inactive)
8,Cn1c(N)c(C(=O)COC(=O)c2ccccc2C(=O)c2ccc(Cl)c([N+](=O)[O-])c2)c(=O)n(C)c1=O,3.61 µM
9,CC1CCN(CCCNC(=O)c2ccc3c(=O)n(Cc4ccc(Cl)cc4)c(=S)[nH]c3c2)CC1,5.33 µM
10,CC(C)C[C@H](NC(=O)c1nc[nH]c1C(=O)NC(c1ccccc1)c1ccccc1)C(=O)OC(C)(C)C,3.67 µM
11,COc1ccc(C(=O)NC(=S)Nc2ccccc2N2CCCCC2)cc1[N+](=O)[O-],0.574 µM
12,O=C(CN1CCCc2ccccc21)N/N=C/c1c(O)ccc2ccccc12,2.7 µM
13,COc1cc2sc(-c3ccccc3OC)c(-c3ccc(OCCN4CCCCC4)cc3)c2cc1OC,4.24 µM
14,C[C@@H]1O[C@@H](O[C@H]2C[C@@H](O)[C@]3(CO)[C@H]4[C@H](O)C[C@]5(C)[C@@H](C6COC(=O)C6)CC[C@]5(O)[C@@H]4CC[C@]3(O)C2)[C@H](O)[C@H](O)[C@H]1O (stereo partly drawn),0.74 µM
15,Cc1ccc(Nc2cc(C)nc(NCc3ccccc3)n2)cc1,4.86 µM
16,CC1=C(C(=O)OC2CCCC2)C(c2coc3ccccc3c2=O)C2=C(CC(C)(C)CC2=O)N1 (stereo not drawn),> 19.5 µM (inactive)
17,CC/C(=C\C1CCCCC1)C(NP(=O)(c1ccccc1)c1ccccc1)c1ccccc1 (stereo not drawn),3.49 µM
18,Cc1ccc(NC(=O)/C=C/c2ccc([N+](=O)[O-])s2)c(C)c1,2.3 µM
19,CCC(CO)Oc1cc(NCc2ccc(Cl)cc2Cl)c2ncn(C(C)C)c2c1 (stereo not drawn),7.64 µM
20,Cc1cc(C)nc(NC(=NCCc2c[nH]c3ccccc23)NC(=O)Nc2ccc(Cl)cc2)n1,> 19.5 µM (inactive)
21,O=c1[nH]c(CN2CC=C(c3ccccc3)CC2)nc2scc(-c3ccccc3)c12,5.19 µM
22,COC(=O)c1ccccc1NCc1cc(=O)oc2cc(O)c(O)cc12,10.9 µM
23,CC(=O)N(C)c1ccc(OCC(O)Cn2c3ccc(Cl)cc3c3cc(Cl)ccc32)cc1 (stereo not drawn),1.65 µM
24,CC(CNC(=S)Nc1cc(F)cc(F)c1)CSc1ccc(Cl)cc1 (stereo not drawn),6.55 µM
25,CSc1nnc(NC(=O)c2nc(S(=O)(=O)Cc3ccccc3F)ncc2Cl)s1,2.92 µM
26,CCCCn1c(-c2cccc(C)c2)nc2cc3[nH]c(=O)c(C(C)C)nc3cc21,4.64 µM

row,Compound,AC50
1,NC(=O)CC(NC(=O)Cc1ccc(Br)cc1)c1ccc(NCc2cc(F)ccc2F)c([N+](=O)[O-])c1 (stereo not drawn),3.36 µM
2,O=C(Nc1ccn(Cc2ccccc2F)n1)c1ccc(COc2ccc(Cl)cc2Cl)o1,> 19.5 µM (inactive)
3,Cc1ccc([N+](=O)[O-])cc1N(CC(=O)Nc1ccc(S(=O)(=O)Nc2cccc(C(F)(F)F)c2)cc1)S(C)(=O)=O,4.67 µM
4,Cc1ccc2sc(N(CCCN(C)C)C(=O)c3ccc(S(=O)(=O)N4CCCCCC4)cc3)nc2c1C,7.04 µM
5,COc1ccc(CC2S/C(=N/N=C/c3ccccc3O)NC2=O)cc1 (stereo not drawn),19.2 µM
6,Cc1ccc(-c2cc([C@H]3[C@@H]4C=CCC[C@@]4(C)C(=O)N3Cc3ccccc3)ccc2F)cc1,5.2 µM
7,CC(C)c1ccc(-c2cc(C(=O)N3N=C(C(F)F)CC3(O)C(F)F)c3ccccc3n2)cc1 (stereo not drawn),6.3 µM
8,CCOC(=O)C(=Cc1ccc(OCc2ccc([N+](=O)[O-])cc2)c(OC)c1)C(=O)OCC,3.03 µM
9,Cc1ccc2c(c1)c1ncn(CCC3=CCCCC3)c(=O)c1n2C,1.09 µM
10,C/C(=N\N=C(/N)SC1CC(=O)N(c2ccc(Cl)c(Cl)c2)C1=O)c1cccs1 (stereo not drawn),7.3 µM
11,Cc1ccc(N/N=C/c2ccncc2)cc1,7.44 µM
12,CCOC(=O)c1c(NC(C)=O)sc2c1CCC(C=O)=C2Sc1ccccc1,3.63 µM
13,CCOC(=O)c1c(C)oc2c1C(=O)c1ccccc1C2=O,4.72 µM
14,Cc1ccc(C(C[N+](=O)[O-])n2nc(C)cc2C)cc1 (stereo not drawn),6.74 µM
15,COc1ccc(-c2cc(-c3nc4ccccn4c3NCc3ccccc3)ccc2OC)cc1,1.96 µM
16,NC(=O)CC(NC(=O)Cc1ccc(Br)cc1)c1ccc(NC2CC3CCC2C3)c([N+](=O)[O-])c1 (stereo not drawn),6.74 µM
17,Cn1cccc1-c1nc2ccccc2n1Cc1ccccc1,13.6 µM
18,N#C/C(=C\C=C\c1ccccc1[N+](=O)[O-])C(=O)NC1CCCCC1,6.88 µM
19,CC1(C)C=Cc2c(ccc3c2OC[C@H](c2ccc(O)cc2O)C3)O1,4.43 µM
20,CCCOC(=O)C(=O)NNc1ccccc1,1.81 µM
21,CCOC(=O)CSC1=C(C#N)C(c2sccc2C)CC(=O)N1 (stereo not drawn),> 19.5 µM (inactive)
22,CCCSc1nnc(CSc2nc3ccccc3s2)n1-c1ccccc1,3.01 µM
23,O=C(Nc1ccc2c(c1)CCC2)c1cc(S(=O)(=O)Nc2ccc(F)cc2)c(Cl)cc1Cl,5.38 µM
24,COc1ccccc1NC(=O)Nc1ccc(-n2ccc(C(F)(F)F)n2)cc1,10.3 µM
25,Cc1cc(C)c(C)c(S(=O)(=O)N2CCN(c3ccc(O)cc3)CC2)c1C,10.7 µM
26,CC1CCCCC1NC(=O)/C(C#N)=C/c1ccccc1F (stereo not drawn),7.72 µM

row,Compound,AC50
1,CC(=O)c1ccc(NC(=O)COC(=O)c2c3c(nc4ccccc24)/C(=C\c2cccs2)CCC3)cc1,4.54 µM
2,COc1ccc(-c2oc3c4c(cc(OC)c3c(=O)c2CC=C(C)C)OC(C)(C)C=C4)c(OC)c1,7.18 µM
3,COc1cc(OC)c2cc(C(=O)N/N=C/c3cccc(OC)c3O)[nH]c2c1,6.08 µM
4,C=CCn1cccc(/C=C/C(=O)c2ccc(C(C)(C)C)cc2)c1=S,6.19 µM
5,COc1ccc(-c2sc3ccccc3c2C#CC2(O)CCCCC2)cc1,5.38 µM
6,CCCc1cc(-c2nc(N)ncc2-c2ccc3c(c2)OCCCO3)c(O)cc1OC,4.18 µM
7,CCCCn1c(=O)c(C(=O)NCc2ccc(Cl)cc2)c(O)c2ccccc21,7.8 µM
8,Cc1cc(S(=O)(=O)c2ccc([N+](=O)[O-])cn2)ccc1Br,3.99 µM
9,O=c1[nH]c(CN2CCN(c3ccccn3)CC2)nc2c(Br)cc(Br)cc12,10.3 µM
10,O=C(CSC1=NNC(c2ccccn2)S1)Nc1ccc(C(F)(F)F)cc1 (stereo not drawn),4.27 µM
11,CC(C)(C)c1ccc(C(=O)Nc2ccc(N3CCOCC3)cc2)cc1,17.3 µM
12,CN(C)CCNC(=O)/C(=C/c1ccc(-c2ccc(Cl)cc2Cl)o1)NC(=O)c1ccccc1,4.78 µM
13,c1ccc(CN2CCN(c3nc(NCc4ccco4)c4ccccc4n3)CC2)cc1,4.22 µM
14,Cc1ccn2c(NC3CCCCC3)c(-c3cccc(SC4CCCCC4)c3)nc2c1,3.86 µM
15,Cc1ccccc1CSc1ccc(-c2ccc3c(c2)OCO3)nn1,7.5 µM
16,O=Cc1cc2ccccc2nc1SCc1ccc(Cl)cc1,5.69 µM
17,Cc1ccnc(Nc2nc(-c3ccc(O)cc3O)cs2)c1,14.9 µM
18,O=C(Nc1ccc2c(c1)OCCO2)c1cccc2nc3ccccc3nc12,3.18 µM
19,CCCCCCSc1cc(-c2nc3ccc(C)cn3c2NCCCC)ccc1OC,6.6 µM
20,O=C(CCc1ccc(Oc2cc([N+](=O)[O-])cc([N+](=O)[O-])c2)cc1)N1CCCCCC1,8.85 µM
21,Cc1cc(-c2ccccc2)n(-c2cc(N/N=C/c3ccccc3O)ncn2)n1,0.669 µM
22,COc1cc(/C=N/Nc2nc(Nc3ccccc3)nc(-n3nc(C)cc3C)n2)cc(OC)c1OC,3.7 µM
23,O=C1/C(=C\c2cccnc2)CN(Cc2ccccc2)C/C1=C\c1cccnc1,3.9 µM
24,Brc1ccc(/C=N/Nc2ccccc2)cc1,8.16 µM
25,Cc1nn(-c2ccccc2)c2nc(N)c(C#N)c(-c3ccc(C(C)(C)C)cc3)c12,3.24 µM
